How the values were obtained:
BACE-1 enzyme = biological target: T1, BACE-1 enzyme (Homo sapiens, UniProt P56817); test: BACE Fluorescence Resonance Energy Transfer (FRET) Assay; assay type: biochemical; details: pH 4-4.5, 30 min pre-incubation, about 1.5 hours reaction
T1 construct: purchased R & D Systems 931AS
How it was run: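 BACE-1 enzyme pre-incubated 30 min with compound in 7.5% DMSO in 50 mM sodium acetate pH 4-4.5, 0.01% CHAPS, 0.0125% Triton X-100, 0.006% EDTA. Rhodamine/quencher peptide substrate added; ~1.5 h at room temperature, fluorescence read at 540/585 nm. IC50 or percent inhibition at one concentration.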

[1] = tested on: Aβ1-40 secreted from HEK293 cells stably expressing wildtype human APP695 protein (HEK-APPwt cells); test: Aβ Cell Based Assay (Aβ1-40 secretion, ELISA); details: 6 hours incubation, reduction of Aβ1-40 secretion
Method: Aβ Cell Based Assay Procedure
In the following assay, the proteolytic activity of BACE in cells exposed to varying concentrations of a compound of interest is measured by observing the amount of Aβ1-40 secreted from HEK293 cells (Human Embryonic Kidney epithelial cell line) stably expressing wildtype human APP695 protein (HEK-APPwt cells).
HEK-APPwt cells were grown in high glucose DMEM (Dulbecco's Modified Eagles Medium SIGMA Cat.# D5796) supplemented with 25 mM HEPES (4-(2-hydroxyethyl)-1-piperazineethanesulfonic acid) (pH 7.4) (Invitrogen Cat.# 15630-114), 0.1 mM NEAA (Non-essential Amino Acids) (BioWhittaker Cat. #13-114E), 10% fetal bovine serum (SIGMA Cat. #F4135) and 250 μg/mL hygromycin (Invitrogen Cat. #10687-010) in T-225 flasks at 37° C. with 5% CO2 and humidity control.
Test compounds were initially prepared in DMSO and diluted with DMEM media containing 2% FBS (Fetal bovine serum). Ten standard compound solutions were prepared having a range of concentrations. The standard compound solutions were used to determine the EC50 of the test compound. The range of concentrations chosen may depend on the compound's predicted potency.
To prepare the cells for the assay, a flask containing HEK-APPwt cells were trypsinized briefly (1 mL trypsin), and once the cells detached, 4 mL of 10% FBS-DMEM was added to the flask. The detached cells were centrifuged at 900 rpm for 5 min to form a pellet.
The HEK-APPwt cell pellet was re-suspended with 10 mL DMEM media containing 2% FBS. 80 μL of the cell suspension was added to each well of a 96-well cell culture plate to give 100×10^4cells/ml. 10 μL of a standard compound solution was added to each well of the 96-well cell culture plate followed by 10 μL of Alamar blue solution. The cells were incubated at 37° C. in a 5% CO2 incubator for 6 hours.
At the end of the incubation, the plates were removed from incubator, and the supernatant was collected. A≈1-40 concentration in the medium was measured by using a commercial Aβ1-X ELISA kit (IBL, Japan Cat. #27729). Briefly, the ELISA plates were coated with an anti-human AO (N)(82E1) mouse IgG monoclonal antibody. A horseradish peroxidase conjugated anti-human Aβ11-28 mouse IgG monoclonal antibody was used for detection. The cell culture supernatant was diluted with EIA buffer +protease inhibitors (kit buffer containing protease inhibitors (1 mL PI/30 mL buffer)). A 100 μL aliquot of the diluted supernatant was added to each well of the ELISA plate and incubated for 6 hrs at 4° C. The ELISA plate was washed 8 times with phosphate buffered saline (PBS) containing 0.05% Tween 20.
A 100 μL of detection antibody was then added and incubated for 1 hour at 4° C. The plate was washed 8 times with PBS buffer containing 0.05% Tween 20 followed by addition of 100 μL of the chromogen tetramethylbenzidine (TMB). The plate was incubated in the dark at room temperature for about 30 min and a stop solution (1N H2SO4) was added.
The intensity of the color developed was measured at 450 nm. The optical density at 450 nm (OD450) is proportional to the concentration of human Aβ1-40 secreted by the cell. As a reference, N-[N-(3,5-difluorophenacetyl-L-alanyl)]-S-phenylglycine t-butyl ester (DAPT, a γ-secretase inhibitor) was used to indicate 100% inhibition of BACE activity. Thus, the assay measures the ability of a compound of interest to reduce Aβ1-40 secretion. For select compounds, compound potency is reported in Table 3 as the EC50 by calculating the percent inhibition at all concentration levels and the data were fit with non-linear curve fitting algorithm using GraphPad Prism.

T1 sequence (P56817 46-457 limits assumed): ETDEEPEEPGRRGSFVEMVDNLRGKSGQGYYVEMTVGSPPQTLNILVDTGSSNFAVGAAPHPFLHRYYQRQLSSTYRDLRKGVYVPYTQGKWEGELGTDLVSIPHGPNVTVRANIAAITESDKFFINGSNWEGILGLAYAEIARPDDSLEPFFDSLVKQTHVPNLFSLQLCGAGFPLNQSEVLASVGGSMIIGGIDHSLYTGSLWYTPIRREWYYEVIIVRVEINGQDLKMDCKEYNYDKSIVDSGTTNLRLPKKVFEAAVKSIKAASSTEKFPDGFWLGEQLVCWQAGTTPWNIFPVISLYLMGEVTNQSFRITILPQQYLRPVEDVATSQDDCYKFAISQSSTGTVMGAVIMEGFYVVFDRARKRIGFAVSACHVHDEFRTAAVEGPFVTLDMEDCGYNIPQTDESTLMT

## Cc1cccc2nc(C(=O)Nc3nc4cc(-c5ccc(Cl)cc5)ccc4[nH]3)cn12 [Example 68, 5-Methyl-imidazo[1,2-a]pyridine-2-carboxylic acid [5-(4-chloro-phenyl)-1H-benzoimidazol-2-yl]-amide]
BACE-1 enzyme
  IC50: 0.48 µM
[1]; Homo sapiens, HEK293, 6 h
  EC50: 1.61 µM

## Cc1cccn2cc(C(=O)Nc3nc4cc(-c5ccc(F)c(Cl)c5)ccc4[nH]3)nc12 [Example 65, 8-Methyl-imidazo[1,2-a]pyridine-2-carboxylic acid [5-(3-chloro-4-fluoro-phenyl)-1H-benzoimidazol-2-yl]-amide]
BACE-1 enzyme
  IC50: 0.3 µM
[1]; Homo sapiens, HEK293, 6 h
  EC50: 0.96 µM

## CC(C)CN(C)Cc1ccc2nc(C(=O)Nc3nc4cc(-c5cccc(C(F)(F)F)c5)ccc4[nH]3)cn2c1 [Example 184, 6-[(Isobutyl-methyl-amino)-methyl]-imidazo[1,2-a]pyridine-2-carboxylic acid [5-(3-trifluoromethyl-phenyl)-1H-benzoimidazol-2-yl]-amide]
BACE-1 enzyme
  IC50: 0.83 µM
[1]; Homo sapiens, HEK293, 6 h
  EC50: 4.32 µM

## Cc1cccc2nc(C(=O)Nc3nc4cc(-c5ccc(F)c(C(F)(F)F)c5)ccc4[nH]3)cn12 [Example 48, 5-Methyl-imidazo[1,2-a]pyridine-2-carboxylic acid [5-(4-fluoro-3-trifluoromethyl-phenyl)-1H-benzoimidazol-2-yl]-amide]
BACE-1 enzyme
  IC50: 0.49 µM
[1]; Homo sapiens, HEK293, 6 h
  EC50: 0.18 µM

## O=C(Nc1nc2cc(-c3cccc(C(F)(F)F)c3)ccc2[nH]1)c1cn2c(CN3CCC(O)CC3)cccc2n1 [Example 167, 5-(4-Hydroxy-piperidin-1-ylmethyl)-imidazo[1,2-a]pyridine-2-carboxylic acid [5-(3-trifluoromethyl-phenyl)-1H-benzoimidazol-2-yl]-amide]
BACE-1 enzyme
  IC50: 0.77 µM
[1]; Homo sapiens, HEK293, 6 h
  EC50: 1.54 µM

## O=C(Nc1nc2cc(-c3ccc(F)c(C(F)(F)F)c3)ccc2[nH]1)c1cn2c(F)cccc2n1 [Example 58, 5-Fluoro-imidazo[1,2-a]pyridine-2-carboxylic acid [5-(4-fluoro-3-trifluoromethyl-phenyl)-1H-benzoimidazol-2-yl]-amide]
BACE-1 enzyme
  IC50: 0.76 µM
[1]; Homo sapiens, HEK293, 6 h
  EC50: 0.4 µM

## Cc1cccc2nc(C(=O)Nc3nc4cc(-c5cccc(C(F)(F)F)c5O)ccc4[nH]3)cn12 [Example 109, 5-Methyl-imidazo[1,2-a]pyridine-2-carboxylic acid [5-(2-hydroxy-3-trifluoromethyl-phenyl)-1H-benzoimidazol-2-yl]-amide]
BACE-1 enzyme
  IC50: 0.87 µM
[1]; Homo sapiens, HEK293, 6 h
  EC50: 4.85 µM

## O=C(Nc1nc2cc(-c3cccc(OC(F)(F)F)c3)ccc2[nH]1)c1cn2ccccc2n1 [Example 117, Imidazo[1,2-a]pyridine-2-carboxylic acid [5-(3-trifluoromethoxy-phenyl)-1H-benzoimidazol-2-yl]-amide]
BACE-1 enzyme
  IC50: 0.54 µM
[1]; Homo sapiens, HEK293, 6 h
  EC50: 3.67 µM

## Cc1cccc2nc(C(=O)Nc3nc4cc(-c5ccc(OC(C)C)cc5)ccc4[nH]3)cn12 [Example 97, 5-Methyl-imidazo[1,2-a]pyridine-2-carboxylic acid [5-(4-isopropoxy-phenyl)-1H-benzoimidazol-2-yl]-amide]
BACE-1 enzyme
  IC50: 0.58 µM
[1]; Homo sapiens, HEK293, 6 h
  EC50: 1.78 µM

## O=C(Nc1nc2cc(OCc3ccc(C(F)(F)F)cc3)ccc2[nH]1)c1cn2cc(-c3ccccc3)ccc2n1 [Example 52, 6-Phenyl-imidazo[1,2-a]pyridine-2-carboxylic acid [5-(4-trifluoromethyl-benzyloxy)-1H-benzoimidazol-2-yl]-amide]
BACE-1 enzyme
  IC50: 5.28 µM
[1]; Homo sapiens, HEK293, 6 h
  EC50: 0.51 µM

## O=C(Nc1nc2cc(-c3cccc(C(F)(F)F)c3)ccc2[nH]1)c1cn2cc(CN3CCCC3)ccc2n1 [Example 179, 6-Pyrrolidin-1-ylmethyl-imidazo[1,2-a]pyridine-2-carboxylic acid [5-(3-trifluoromethyl-phenyl)-1H-benzoimidazol-2-yl]-amide]
BACE-1 enzyme
  IC50: 0.55 µM
[1]; Homo sapiens, HEK293, 6 h
  EC50: 4.74 µM

## CCOc1ccc(-c2ccc3[nH]c(NC(=O)c4cn5c(C)cccc5n4)nc3c2)cc1Cl [Example 79, 5-Methyl-imidazo[1,2-a]pyridine-2-carboxylic acid [5-(3-chloro-4-ethoxy-phenyl)-1H-benzoimidazol-2-yl]-amide]
BACE-1 enzyme
  IC50: 1.82 µM
[1]
  EC50: 1.54 µM

## Cc1ccc2nc(C(=O)Nc3nc4cc(-c5cccc(C(F)(F)F)c5)ccc4[nH]3)cn2c1 [Example 59, 6-Methyl-imidazo[1,2-a]pyridine-2-carboxylic acid [5-(3-trifluoromethyl-phenyl)-1H-benzoimidazol-2-yl]-amide]
BACE-1 enzyme
  IC50: 0.41 µM
[1]; Homo sapiens, HEK293, 6 h
  EC50: 3.16 µM

## O=C(Nc1nc2cc(-c3cccc(C(F)(F)F)c3)ccc2[nH]1)c1cn2ccc(CNCC(O)c3ccccc3)cc2n1 (stereo not drawn) [Example 206, 7-[(2-Hydroxy-2-phenyl-ethylamino)-methyl]-imidazo[1,2-a]pyridine-2-carboxylic acid [5-(3-trifluoromethyl-phenyl)-1H-benzoimidazol-2-yl]-amide]
BACE-1 enzyme
  IC50: 0.44 µM
[1]; Homo sapiens, HEK293, 6 h
  EC50: 7.43 µM

## O=C(Nc1nc2cc(-c3cccc(C(F)(F)F)c3)ccc2[nH]1)c1cn2c(CN3CCOCC3)cccc2n1 [Example 165, 5-Morpholin-4-ylmethyl-imidazo[1,2-a]pyridine-2-carboxylic acid [5-(3-trifluoromethyl-phenyl)-1H-benzoimidazol-2-yl]-amide]
BACE-1 enzyme
  IC50: 0.42 µM
[1]; Homo sapiens, HEK293, 6 h
  EC50: 1.88 µM

## Cc1cccc2nc(C(=O)Nc3nc4cc(-c5cccc(C(F)(F)F)c5F)ccc4[nH]3)cn12 [Example 53, 5-Methyl-imidazo[1,2-a]pyridine-2-carboxylic acid [5-(2-fluoro-3-trifluoromethyl-phenyl)-1H-benzoimidazol-2-yl]-amide]
BACE-1 enzyme
  IC50: 0.26 µM
[1]; Homo sapiens, HEK293, 6 h
  EC50: 0.23 µM

## COc1cc(F)cn2cc(C(=O)Nc3nc4cc(-c5cccc(C(F)(F)F)c5)ccc4[nH]3)nc12 [Example 127, 6-Fluoro-8-methoxy-imidazo[1,2-a]pyridine-2-carboxylic acid [5-(3-trifluoromethyl-phenyl)-1H-benzoimidazol-2-yl]-amide]
BACE-1 enzyme
  IC50: 0.45 µM
[1]; Homo sapiens, HEK293, 6 h
  EC50: 1.73 µM

## COCCNCc1cccc2nc(C(=O)Nc3nc4cc(-c5cccc(C(F)(F)F)c5)ccc4[nH]3)cn12 [Example 162, 5-[(2-Methoxy-ethylamino)-methyl]-imidazo[1,2-a]pyridine-2-carboxylic acid [5-(3-trifluoromethyl-phenyl)-1H-benzoimidazol-2-yl]-amide]
BACE-1 enzyme
  IC50: 0.23 µM
[1]; Homo sapiens, HEK293, 6 h
  EC50: 0.98 µM

## O=C(Nc1nc2cc(-c3cccc(C(F)(F)F)c3)ccc2[nH]1)c1cn2ccc(CNC(CO)Cc3ccccc3)cc2n1 (stereo not drawn) [Example 207, 7-[(1-Benzyl-2-hydroxy-ethylamino)-methyl]-imidazo[1,2-a]pyridine-2-carboxylic acid [5-(3-trifluoromethyl-phenyl)-1H-benzoimidazol-2-yl]-amide]
BACE-1 enzyme
  IC50: 0.69 µM
[1]; Homo sapiens, HEK293, 6 h
  EC50: 7.65 µM

## O=C(Nc1nc2cc(-c3cccc(C(F)(F)F)c3)ccc2[nH]1)c1cn2cccc(CO)c2n1 [Example 192, 8-Hydroxymethyl-imidazo[1,2-a]pyridine-2-carboxylic acid [5-(3-trifluoromethyl-phenyl)-1H-benzoimidazol-2-yl]-amide]
BACE-1 enzyme
  IC50: 0.4 µM
[1]; Homo sapiens, HEK293, 6 h
  EC50: 2.56 µM

## CCOc1ccc(-c2ccc3[nH]c(NC(=O)c4cn5c(C)cccc5n4)nc3c2)cc1F [Example 80, 5-Methyl-imidazo[1,2-a]pyridine-2-carboxylic acid [5-(4-ethoxy-3-fluoro-phenyl)-1H-benzoimidazol-2-yl]-amide]
BACE-1 enzyme
  IC50: 0.81 µM
[1]; Homo sapiens, HEK293, 6 h
  EC50: 1.32 µM

From US20120101093A1, “SUBSTITUTED IMIDAZO[1,2-A]PYRIDINE DERIVATIVES, PHARMACEUTICAL COMPOSITIONS, AND METHODS OF USE AS BETA-SECRETASE INHIBITORS” (HIGH POINT PHARMACEUTICALS, LLC, priority 2009, published 2012)
